Experimental data as given in PubChem BioAssay AID248 (DTP/NCI, 2004).
Where “and” joins values, the source holds several entries; their conditions need not be identical. Equal values may be shown once. Toxic doses and inconclusive results are not listed. No stated cut-off is given here; in the data, active means T/C of 150% or more; inactive means T/C below 125%.

System: L1210 leukemia ip in BDF1 mice, survival T/C
Experiment: NCI In Vivo Anticancer Drug Screen. Data for tumor model L1210 Leukemia (intraperitoneal) in B6D2F1 (BDF1) mice
Details: endpoint: mean survival time, higher = longer survival
How it was run: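 Survival endpoint. Drug-treated group vs vehicle group, expressed as T divided by C. Tumor passaged by transplantation.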

[1] = dose: 100.0 mg/kg/injection, schedule: Q01DX001 (ip), vehicle: carboxymethylcellulose (CMC)
[2] = dose: 200.0 mg/kg/injection, schedule: Q01DX001 (ip), vehicle: carboxymethylcellulose (CMC)
[3] = dose: 400.0 mg/kg/injection, schedule: Q01DX001 (ip), vehicle: carboxymethylcellulose (CMC)
[4] = dose: 100.0 mg/kg/injection, schedule: Q01DX001 (ip), vehicle: saline
[5] = dose: 200.0 mg/kg/injection, schedule: Q01DX001 (ip), vehicle: saline
[6] = dose: 400.0 mg/kg/injection, schedule: Q01DX001 (ip), vehicle: saline

Measured: T/C

O=[N+]([O-])c1ccc(/C=C\c2ccncc2)cc1
inactive: [1] 101 % of control | dose: 100.0 mg/kg/injection, schedule: Q01DX009 (ip), vehicle: carboxymethylcellulose (CMC) 100 % of control | dose: 100.0 mg/kg/injection, schedule: Q04DX002 (ip), vehicle: carboxymethylcellulose (CMC) 103 % of control and 108 % of control | dose: 100.0 mg/kg/injection, schedule: Q04DX003 (ip), vehicle: carboxymethylcellulose (CMC) 100 % of control | [2] 105 % of control | dose: 200.0 mg/kg/injection, schedule: Q01DX009 (ip), vehicle: carboxymethylcellulose (CMC) 98 % of control | dose: 200.0 mg/kg/injection, schedule: Q04DX002 (ip), vehicle: carboxymethylcellulose (CMC) 100 % of control | dose: 200.0 mg/kg/injection, schedule: Q04DX003 (ip), vehicle: carboxymethylcellulose (CMC) 115 % of control | [3] 95 % of control | dose: 400.0 mg/kg/injection, schedule: Q04DX002 (ip), vehicle: carboxymethylcellulose (CMC) 100 % of control | dose: 400.0 mg/kg/injection, schedule: Q04DX003 (ip), vehicle: carboxymethylcellulose (CMC) 104 % of control

NC(=O)CCSCCC(N)=O
inactive: dose: 100.0 mg/kg/injection, schedule: Q01DX009 (ip), vehicle: saline 114 % of control | dose: 200.0 mg/kg/injection, schedule: Q01DX009 (ip), vehicle: saline 118 % of control | dose: 400.0 mg/kg/injection, schedule: Q01DX009 (ip), vehicle: saline 111 % of control

CCOCCOCCOC(=O)COCC(=O)OCCOCCOCC
inactive: [4] 96 % of control | [5] 113 % of control | [6] 111 % of control

N#Cc1c(CBr)ccc2ccccc12
inactive: dose: 75.0 mg/kg/injection, schedule: Q01DX001 (ip), vehicle: saline 92 % of control

O=[N+]([O-])c1ccccc1N=P(c1ccccc1)(c1ccccc1)c1ccccc1
inactive: dose: 50.0 mg/kg/injection, schedule: Q01DX009 (ip), vehicle: DMSO 91 % of control | dose: 100.0 mg/kg/injection, schedule: Q01DX009 (ip), vehicle: DMSO 88 % of control | dose: 100.0 mg/kg/injection, schedule: Q04DX003 (ip), vehicle: DMSO 93 % of control | dose: 200.0 mg/kg/injection, schedule: Q04DX003 (ip), vehicle: DMSO 93 % of control

O=C1c2cc(F)ccc2-c2cccc(F)c21
inactive: dose: 50.0 mg/kg/injection, schedule: Q01DX001 (ip), vehicle: carboxymethylcellulose (CMC) 102 % of control | [1] 108 % of control | [2] 104 % of control | [3] 98 % of control

CC(C)(N)CO
inactive: dose: 50.0 mg/kg/injection, schedule: Q01DX001 (ip), vehicle: saline 104 % of control | [4] 101 % of control | dose: 100.0 mg/kg/injection, schedule: Q04DX002 (ip), vehicle: saline 100 % of control | dose: 100.0 mg/kg/injection, schedule: Q04DX003 (ip), vehicle: saline 106 % of control | [5] 104 % of control | dose: 200.0 mg/kg/injection, schedule: Q04DX002 (ip), vehicle: saline 110 % of control | dose: 200.0 mg/kg/injection, schedule: Q04DX003 (ip), vehicle: saline 106 % of control | [6] 101 % of control | dose: 400.0 mg/kg/injection, schedule: Q04DX002 (ip), vehicle: saline 100 % of control | dose: 400.0 mg/kg/injection, schedule: Q04DX003 (ip), vehicle: saline 105 % of control

Cc1cc(=O)c2cc(N(C)C)ccc2[nH]1
inactive: dose: 100.0 mg/kg/injection, schedule: Q01DX009 (ip), vehicle: water 100 % of control | dose: 100.0 mg/kg/injection, schedule: Q04DX003 (ip), vehicle: water 115 % of control | dose: 200.0 mg/kg/injection, schedule: Q01DX009 (ip), vehicle: water 105 % of control | dose: 200.0 mg/kg/injection, schedule: Q04DX003 (ip), vehicle: water 116 % of control | dose: 400.0 mg/kg/injection, schedule: Q01DX009 (ip), vehicle: water 104 % of control | dose: 400.0 mg/kg/injection, schedule: Q04DX003 (ip), vehicle: water 116 % of control

N=C(OC1CCCCC1)N(Cc1ccccc1)Cc1ccccc1
inactive: dose: 44.0 mg/kg/injection, schedule: Q01DX Z (ip), vehicle: methylcellulose (MC) 104 % of control | dose: 66.0 mg/kg/injection, schedule: Q01DX Z (ip), vehicle: methylcellulose (MC) 104 % of control | dose: 100.0 mg/kg/injection, schedule: Q01DX Z (ip), vehicle: methylcellulose (MC) 117 % of control

COc1ccccc1/C=N\N=C(N/N=C/c1ccccc1OC)N/N=C/c1ccccc1OC
inactive: dose: 15.0 mg/kg/injection, schedule: Q01DX Z (ip), vehicle: methylcellulose (MC) 96 % of control | dose: 30.0 mg/kg/injection, schedule: Q01DX Z (ip), vehicle: methylcellulose (MC) 108 % of control | dose: 60.0 mg/kg/injection, schedule: Q01DX Z (ip), vehicle: methylcellulose (MC) 101 % of control | dose: 60.0 mg/kg/injection, schedule: Q01DX Z (oral), vehicle: methylcellulose (MC) 102 % of control | dose: 120.0 mg/kg/injection, schedule: Q01DX Z (ip), vehicle: methylcellulose (MC) 102 % of control | dose: 120.0 mg/kg/injection, schedule: Q01DX Z (oral), vehicle: methylcellulose (MC) 100 % of control | dose: 240.0 mg/kg/injection, schedule: Q01DX Z (ip), vehicle: methylcellulose (MC) 97 % of control | dose: 325.0 mg/kg/injection, schedule: Q01DX Z (oral), vehicle: methylcellulose (MC) 86 % of control | dose: 360.0 mg/kg/injection, schedule: Q01DX Z (ip), vehicle: methylcellulose (MC) 100 % of control | dose: 480.0 mg/kg/injection, schedule: Q01DX Z (ip), vehicle: methylcellulose (MC) 110 % of control | dose: 480.0 mg/kg/injection, schedule: Q01DX Z (oral), vehicle: methylcellulose (MC) 104 % of control | dose: 675.0 mg/kg/injection, schedule: Q01DX Z (oral), vehicle: methylcellulose (MC) 108 % of control

CCOC(=O)C(C)(C)CCC(C)(C)C(=O)OCC
inactive: dose: 100.0 mg/kg/injection, schedule: Q04DX002 (ip), vehicle: Klucel (hydroxypropylcellulose) (HPC) 97 % of control | dose: 200.0 mg/kg/injection, schedule: Q04DX002 (ip), vehicle: Klucel (hydroxypropylcellulose) (HPC) 103 % of control | dose: 400.0 mg/kg/injection, schedule: Q04DX002 (ip), vehicle: Klucel (hydroxypropylcellulose) (HPC) 90 % of control

CC1(C)OC(CO)C2OC(C)(C)OC(CO)C2O1 (centres undefined)
inactive: [1] 98 % of control | [2] 98 % of control | [3] 95 % of control

CN(C)OC(=O)Nc1cccc2ccccc12
inactive: dose: 100.0 mg/kg/injection, schedule: Q04DX002 (ip), vehicle: DMSO 96 % of control | dose: 200.0 mg/kg/injection, schedule: Q04DX002 (ip), vehicle: DMSO 108 % of control | dose: 400.0 mg/kg/injection, schedule: Q04DX002 (ip), vehicle: DMSO 101 % of control

CC1CCCC(NC(=O)N(CCCl)N=O)C1 (centres undefined)
inactive: dose: 8.0 mg/kg/injection, schedule: Q01DX001 (ip), vehicle: other 109 % of control | dose: 125.0 mg/kg/injection, schedule: Q01DX001 (ip), vehicle: other 86 % of control | dose: 286.0 mg/kg/injection, schedule: Q01DX001 (ip), vehicle: other 88 % of control
active: dose: 27.0 mg/kg/injection, schedule: Q01DX001 (ip), vehicle: other 307 % of control | dose: 31.0 mg/kg/injection, schedule: Q01DX001 (ip), vehicle: other 170 % of control | dose: 35.0 mg/kg/injection, schedule: Q01DX001 (ip), vehicle: other 190 % of control | dose: 42.0 mg/kg/injection, schedule: Q01DX001 (ip), vehicle: other 348 % of control | dose: 62.0 mg/kg/injection, schedule: Q01DX001 (ip), vehicle: other 275 % of control and 361 % of control | dose: 71.0 mg/kg/injection, schedule: Q01DX001 (ip), vehicle: other 301 % of control | dose: 93.0 mg/kg/injection, schedule: Q01DX001 (ip), vehicle: other 307 % of control

COC(COS(=O)(=O)c1ccc(Br)cc1)(c1ccccc1)c1ccccc1
inactive: dose: 50.0 mg/kg/injection, schedule: Q01DX009 (ip), vehicle: saline with Tween-80 87 % of control

CC(=O)CC(=O)NCC(CCN1CCCCC1)(c1cccc2ccccc12)C(C)C (centres undefined)
inactive: dose: 25.0 mg/kg/injection, schedule: Q01DX009 (ip), vehicle: Klucel (hydroxypropylcellulose) (HPC) 106 % of control | dose: 50.0 mg/kg/injection, schedule: Q01DX009 (ip), vehicle: Klucel (hydroxypropylcellulose) (HPC) 95 % of control
